Measurements as given in patent publication US10112949B2, “6,7-dihydropyrazolo[1,5-a]pyrazin-4(5H)-one compounds and their use as negative allosteric modulators of mGluR2 receptors” (Janssen Pharmaceutica NV, priority 2014, dated 2018).
Like-named read-outs stand apart in the source and are kept apart here.

Experiments:
[1] = test system: apomorphine-challenged rats; assay: Reversal of LY-404039-induced decrease of palpebral opening in apomorphine-challenged rats; type: in vivo, rat; settings: for ED50: rat, criterion cumulative palpebral opening score >26, read-out: ED50 APO LY-404039
Procedure: B) In Vivo Pharmacology 1) Reversal of LY-404039-Induced Decrease of Palpebral Opening in Apomorphine-Challenged Rats.
Male Wiga Wistar rats (Crl:WI; Charles River Germany; 220±40 g) were housed under standard laboratory conditions (21±2° C.; 50-65% relative humidity; light-dark cycle set at 12 h; lights on at 6.00 h) and fasted overnight prior to the start of the experiments (tap water remained available ad libitum). During the test period, they were housed in individual cages. Palpebral opening was scored every 5 min over the first hour after injection of apomorphine (1.0 mg/kg, i.v.) in animals either pretreated or not pretreated with LY-404039 (2.5 mg/kg, s.c.) at 1 h prior to the apomorphine injection. The animals were also pretreated with test compound or solvent at a predefined interval before apomorphine challenge. The score system was: (5) exophthalmos, (4) wide open, (3) open for three-quarters, (2) half open, (1) open for one-quarter, (0) closed. The scores for palpebral opening were cumulated over the 60-min observation period.

[2] = test system: rats; assay: Reversal of the effect of the mGluR2 PAM JNJ-42153605-induced inhibition of scopolamine-induced hyperlocomotion; type: in vivo, rat; settings: for ED50: rat, route PO (route cell empty for Co. No. 22, 25, 18, 19, 29), criterion total distance >1500 cm, read-out: ED50 SCOP JNJ-42153605
Procedure: 2) Reversal of the Effect of the mGluR2 PAM JNJ-42153605-Induced Inhibition of Scopolamine-Induced Hyperlocomotion Apparatus
Motor activity was measured in microprocessor-based motor activity arenas (closed gray PVC cylinders with a height of 39 cm and a diameter of 31 cm). Each arena was placed on an infrared LED (8×8 LEDs) lit box (white PVC squared box; 40×40 cm^2; height 12.5 cm. An infrared-sensitive tube camera and a white light source were mounted to the ceiling above the observation chamber to track the animal. The total distance traveled (cm) was recorded and analyzed using the Noldus Ethovision XT Video Tracking System (Version 7.0.418; Noldus, Wageningen, The Netherlands). The intensity of the light within the activity cages (measured in the centre at the level of the floor) ranged between 4 and 8 LUX.
The rats were pretreated with test compound or vehicle at 60 min before the start of the activity recordings and placed into individual cages. The rats were challenged with JNJ-42153605 (3-(cyclopropylmethyl)-7-(4-phenylpiperidin-1-yl)-8-(trifluoromethyl)-[1,2,4]triazolo[4,3-a]pyridine; WO2010/130424; Cid et al. J. Med. Chem. 2012, 55, 8770-8789) (20 mg/kg, i.v.) 30 min before the start of the activity recording combined with scopolamine (0.16 mg/kg, i.v.) just before the start of the activity measurements. Immediately after the injection of scopolamine, the rats were placed into the activity monitors and total distance travelled over the first 30 min was measured.
Solvent-Pretreated Control Rats.
For reversal of the inhibitory effect of JNJ-42153605 on the scopolamine-induced hyperlocomotion, the following all-or-none criteria were adopted: (1) reversal: total distance >1500 cm.

[3] = Induction of mydriasis; settings: Wiga, in vivo, rat, route PO; for ED50: maximum pupil diameter >25 units over 1, 2 or 3 h post-administration, read-out: ED50 MYD Test 2
Procedure: 3) Induction of Mydriasis
The pupil diameter of Wiga rats was measured with a microscopic micrometer (1 unit= 1/24 mm). Criteria for drug-induced effects: pupil diameter >25 units for mydriasis (in controls: 1.9%) 1 h post-administration of the test compound (test 1) or 1, 2 or 3 h post-administration of the test compound (test 2, wherein the maximum pupil diameter over the full 3 h period is reported).

[4] = target: human mGlu2 receptor (Homo sapiens, UniProt Q14416); assay: [35S]GTPγS binding assay, negative allosteric modulation of mGluR2; settings: for Emax: read-out: GTPγS - hmGluR2 anGT Emax;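 on all read-outs here: membranes from CHO cells expressing the receptor, compound with glutamate near EC80 (60 µM), 30 min preincubation then 30 min label uptake at 30 °C, percent of control glutamate response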
Chain of human mGlu2 receptor (Q14416 19-872): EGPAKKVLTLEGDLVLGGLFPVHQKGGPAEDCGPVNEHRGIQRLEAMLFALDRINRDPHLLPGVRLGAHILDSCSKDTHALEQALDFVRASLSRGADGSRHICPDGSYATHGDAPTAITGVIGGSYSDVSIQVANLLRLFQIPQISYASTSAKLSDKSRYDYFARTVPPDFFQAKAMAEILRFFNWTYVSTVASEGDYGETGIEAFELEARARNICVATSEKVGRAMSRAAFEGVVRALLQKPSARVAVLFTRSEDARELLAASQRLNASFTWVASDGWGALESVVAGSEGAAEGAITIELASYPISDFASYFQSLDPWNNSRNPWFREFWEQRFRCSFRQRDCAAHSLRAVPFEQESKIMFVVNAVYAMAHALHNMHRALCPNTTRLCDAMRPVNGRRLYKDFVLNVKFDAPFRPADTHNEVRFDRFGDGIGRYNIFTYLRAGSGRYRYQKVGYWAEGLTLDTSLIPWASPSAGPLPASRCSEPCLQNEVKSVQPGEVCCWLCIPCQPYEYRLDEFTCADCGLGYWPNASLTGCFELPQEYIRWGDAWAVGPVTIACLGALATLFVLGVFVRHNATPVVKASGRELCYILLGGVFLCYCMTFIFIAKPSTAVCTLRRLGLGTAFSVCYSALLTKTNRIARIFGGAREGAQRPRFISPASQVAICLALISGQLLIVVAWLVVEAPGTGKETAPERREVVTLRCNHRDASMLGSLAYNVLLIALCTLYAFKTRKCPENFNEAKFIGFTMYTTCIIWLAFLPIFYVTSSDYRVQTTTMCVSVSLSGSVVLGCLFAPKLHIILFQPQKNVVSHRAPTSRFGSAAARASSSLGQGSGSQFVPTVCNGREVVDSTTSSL
Procedure: Here we describe the use of the [^35S]GTPγS binding assay using membranes from cells transfected with the human mGlu2 receptor and adapted from Schaffhauser et al. (Molecular Pharmacology, 2003, 4:798-810) for the detection of the negative allosteric modulation (NAM) properties of the compounds of this invention.
CHO-cells were cultured to pre-confluence and stimulated with 5 mM butyrate for 24 h. Cells were then collected by scraping in PBS and cell suspension was centrifuged (10 min at 4000 RPM in benchtop centrifuge). Supernatant was discarded and pellet gently resuspended in 50 mM Tris-HCl, pH 7.4 by mixing with an Ultra Turrax homogenizer. The suspension was centrifuged at 12,400 RPM (Sorvall F14S-6x250Y) for 10 minutes and the supernatant discarded. The pellet was homogenized in 5 mM Tris-HCl, pH 7.4 using an Ultra Turrax homogenizer and centrifuged again (13,000 RPM, 20 min, 4° C.). The final pellet was resuspended in 50 mM Tris-HCl, pH 7.4 and stored at −80° C. in appropriate aliquots before use. Protein concentration was determined by the Bradford method (Bio-Rad, USA) with bovine serum albumin as standard.
Measurement of mGluR2 negative allosteric modulatory activity of test compounds was performed as follows. Test compounds and glutamate were diluted in assay buffer containing 10 mM HEPES acid, 10 mM HEPES salt, pH 7.4, 100 mM NaCl, 3 mM MgCl2 and 10 μM GDP. Human mGlu2 receptor-containing membranes were thawed on ice and diluted in assay buffer supplemented with 18 μg/ml saponin. Membranes were pre-incubated with compound together with a predefined (˜EC80) concentration of glutamate (60 μM) for 30 min at 30° C. After addition of [^35S]GTPγS (f.c. 0.1 nM), assay mixtures were shaken briefly and further incubated to allow [^35S]GTPγS incorporation on activation (30 minutes, 30° C.). Final assay mixtures contained 7 μg of membrane protein in 10 mM HEPES acid, 10 mM HEPES salt, pH 7.4, 100 mM NaCl, 3 mM MgCl2, 10 μM GDP and 10 μg/ml saponin. Total reaction volume was 200 μl. Reactions were terminated by rapid filtration through Unifilter-96 GF/B plates (Perkin Elmer, Massachusetts, USA) using a 96-well filtermate universal harvester. Filters were washed 6 times with ice-cold 10 mM NaH2PO4/10 mM Na2HPO4, pH 7.4. Filters were then air-dried and 30 μl of liquid scintillation cocktail (Microscint-O) was added to each well. Membrane-bound radioactivity was counted in a Topcount.
Data were calculated as % of the control glutamate response, defined as the response that is generated upon addition of an EC80-equivalent concentration of glutamate. Sigmoid concentration-response curves plotting these percentages versus the log concentration of the test compound were analyzed using non-linear regression analysis. The concentration producing half-maximal inhibition was calculated as the IC50. The pIC50 values were calculated as the −log IC50, when the IC50 is expressed in M. Emax is defined as the relative maximal effect (i.e. maximal % inhibition relative to the control glutamate response).

[5] = control rats, scores cumulated over 60 min
[6] = historical solvent-pretreated control rats, first 30 min

Compound	IC50 [4]	Emax [4]	further results
CN1CCc2cccc3c2[C@H]1Cc1ccc(O)c(O)c1-3 [Apomorphine alone, apomorphine]	–	–	Palpebral opening score, Median score ([1]; control rats, apomorphine 1.0 mg/kg i.v., LY-404039 2.5 mg/kg s.c., scores cumulated over 60 min): 43; Palpebral opening score, Occurrence score >26 (%) [1, 5]: 99.5%; Palpebral opening score, Occurrence score >34 (%) [1, 5]: 95.9%; Palpebral opening score, Occurrence score >34 (%) ([1]; control rats, scores cumulated over 60 min, listed as apomorphine alone): 95.5%
CN1[C@@H]2C[C@@H](OC(=O)[C@H](CO)c3ccccc3)C[C@H]1[C@@H]1O[C@@H]12 [Scopolamine, scopolamine, reference compound]	–	–	Total distance >1500 cm (%) [2, 6]: 100%; Total distance >4400 cm (%) [2, 6]: 95.8%; Total distance travelled, Median (cm) [2, 6]: 7246 cm
C[C@H]1CN(c2ccc(C(F)(F)F)cc2)C(=O)c2c(C#Cc3ccc(N)nc3)cnn21 [compound 1]	1.58 nM	106%	ED50 [3]: > 40 mg/kg; ED50 at 1 h ([3]; pupil diameter >25 units 1 h post-administration, read-out: ED50 MYD Test 1): > 10 mg/kg; ED50 [2]: 0.17 mg/kg; ED50 ([1]; route PO): 0.08 mg/kg; ED50 ([1]; route SC): 0.06 mg/kg
C[C@H]1CN(c2ccc(Cl)c(Cl)c2)C(=O)c2c(C#Cc3ccc(N)nc3)cnn21 [compound 2]	1.12 nM	105%	–
CNc1ccc(C#Cc2cnn3c2C(=O)N(c2ccc(Cl)c(Cl)c2)C[C@@H]3C)cn1 [compound 3]	2.24 nM	105%	–
C[C@H]1CN(c2ccc(C(F)(F)F)cn2)C(=O)c2c(C#Cc3ccc(N)nc3)cnn21 [compound 4]	2.4 nM	103%	–
C[C@H]1CN(c2ccc(C(F)(F)F)cc2)C(=O)c2c(C#Cc3ccccc3)cnn21 [compound 5]	4.07 nM	105%	–
COc1ccc(C#Cc2cnn3c2C(=O)N(c2ccc(Cl)c(Cl)c2)C[C@@H]3C)cn1 [compound 6]	5.62 nM	106%	–
C[C@H]1CN(c2ccc(Cl)c(Cl)c2)C(=O)c2c(C#Cc3ccc(F)nc3)cnn21 [compound 7]	6.76 nM	105%	–
COc1ccc(N2C[C@H](C)n3ncc(C#Cc4ccc(N)nc4)c3C2=O)cc1Cl [compound 8]	8.51 nM	107%	–
Cc1cc(C#Cc2cnn3c2C(=O)N(c2ccc(C(F)(F)F)cc2)C[C@@H]3C)ccn1 [compound 9]	8.71 nM	107%	–
C[C@H]1CN(c2ccc(C(F)(F)F)cc2)C(=O)c2c(C#Cc3ccnc(N)c3)cnn21 [compound 10]	10 nM	105%	–
Cc1ccc(C#Cc2cnn3c2C(=O)N(c2ccc(C(F)(F)F)cc2)C[C@@H]3C)cn1 [compound 11]	10.2 nM	103%	–
C[C@H]1CN(c2ccc(Cl)c(Cl)c2)C(=O)c2c(C#Cc3ccc(N(C)C)nc3)cnn21 [compound 12]	33.1 nM	107%	–
C[C@H]1CN(c2ccc(C(F)(F)F)c(Cl)c2)C(=O)c2c(C#Cc3ccc(N)nc3)cnn21 [compound 13]	1.1 nM	108%	ED50 [3]: > 40 mg/kg; ED50 [2]: 0.028 mg/kg
C[C@H]1CN(c2ccc(C(F)C(F)(F)F)cc2)C(=O)c2c(C#Cc3ccc(N)nc3)cnn21 (some centres unmarked) [compound 16]	7.08 nM	104%	–
C[C@H]1CN(c2ccc(C(F)(F)F)cc2)C(=O)c2c(C#Cc3cccnc3N)cnn21 [compound 17]	14.8 nM	105%	–

Compound	IC50 [4]	Emax [4]	further results
C[C@H]1CN(c2ccc(C(F)(F)F)c(F)c2)C(=O)c2c(C#Cc3ccc(N)nc3)cnn21 [compound 18]	2.69 nM	107%	ED50 [2]: 0.13 mg/kg
C[C@H]1CN(c2ccc(C(F)(F)F)c(CF)n2)C(=O)c2c(C#Cc3ccc(N)nc3)cnn21 [compound 19]	2.14 nM	104%	ED50 [2]: > 0.63 mg/kg
COCc1cc(C#Cc2cnn3c2C(=O)N(c2ccc(C(F)(F)F)cc2)C[C@@H]3C)cnc1N [compound 20]	24 nM	102%	–
C[C@H]1CN(c2ccc(C(F)(F)F)cc2)C(=O)c2c(C#Cc3cnc(N)c(CF)c3)cnn21 [compound 21]	41.7 nM	102%	–
C[C@H]1CN(c2ccc(C(F)(F)F)c(Cl)c2)C(=O)c2c(C#Cc3cnc(N)cc3CO)cnn21 [compound 22]	0.832 nM	106%	ED50 [2]: > 0.63 mg/kg
C[C@H]1CN(c2ccc(C(F)(F)F)cc2)C(=O)c2c(C#Cc3cnc(N)cc3CF)cnn21 [compound 23]	2.75 nM	106%	–
CNc1ncccc1C#Cc1cnn2c1C(=O)N(c1ccc(C(F)(F)F)cc1)C[C@@H]2C [compound 24]	15.8 nM	99%	–
COCc1cc(N)ncc1C#Cc1cnn2c1C(=O)N(c1ccc(C(F)(F)F)cc1)C[C@@H]2C [compound 25]	2.24 nM	105%	ED50 [2]: 0.08 mg/kg
C[C@H]1CN(c2ccc(C(F)(F)F)cc2)C(=O)c2c(C#Cc3cncc(CF)c3)cnn21 [compound 26]	37.2 nM	108%	–
COCc1cncc(C#Cc2cnn3c2C(=O)N(c2ccc(C(F)(F)F)cc2)C[C@@H]3C)c1 [compound 27]	97.7 nM	106%	–
C[C@H]1CN(c2ccc(C(F)(F)F)cc2)C(=O)c2c(C#Cc3cncc(CO)c3)cnn21 [compound 28]	53.7 nM	101%	–
C[C@H]1CN(c2ccc(C(F)(F)F)cc2)C(=O)c2c(C#Cc3cnc(N)cc3CO)cnn21 [compound 29]	2.95 nM	106%	ED50 [2]: > 0.63 mg/kg
CNc1ccc(C#Cc2cnn3c2C(=O)N(c2ccc(C(F)(F)F)c(Cl)n2)C[C@@H]3C)cn1 [compound 31]	8.71 nM	111%	–
CNc1ccc(C#Cc2cnn3c2C(=O)N(c2ccc(C(F)(F)F)c(OC)n2)C[C@@H]3C)cn1 [compound 32]	9.33 nM	106%	–
COc1nc(N2C[C@H](C)n3ncc(C#Cc4ccc(N)nc4)c3C2=O)ccc1C(F)(F)F [compound 33]	2.51 nM	109%	–
C[C@H]1CN(c2ccc(C(F)(F)F)cc2)C(=O)c2c(C#Cc3cccc(S(=O)(=O)F)c3)cnn21 [compound 34]	14.5 nM	110%	–
C[C@H]1CN(c2ccc(C(F)(F)F)cc2)C(=O)c2c(C#Cc3ccc(S(=O)(=O)F)cc3)cnn21 [compound 35]	42.7 nM	108%	–
